Results: patent publication US11325904B2, “Tropinol esters and related compounds to promote normal processing of APP” (BUCK INSTITUTE FOR RESEARCH ON AGING, priority 2011, dated 2022)

Test system: ectodomain of APP695 (MBP-eAPP230-624, eAPP230-624, TRX-eAPP575-624)
Assay: Surface plasmon resonance (Biacore T100) binding to APP ectodomain fragments
Protocol: We used surface plasmon resonance to assess binding of compound 14 to the APP ectodomain (eAPP) fragments was done using a Biacore T100. Biotinylated TRX-eAPP575-624 and other eAPP fragments were immobilized onto strepavidin-coated sensor CM5 chip.
Surface plasmon resonance data was obtained with a Biacore T100 for 0-50 μM compound 14 flowed at 1 μl per min in 1% DMSO, 20 mM sodium phosphate, 125 mM sodium chloride pH 7.4 over a CM5 chip cross-linked with proteins containing fragments of the ectodomain of APP695. The three proteins were MBP-eAPP230-624—a fusion protein containing maltose binding protein and residues 230-624 of the ectodomain of APP (90-kDa), eAPP230-624—a protein that contains only residues 230-624 (45-kDa), and TRX-eAPP575-624—a fusion protein containing thioredoxin and residues 575-624 of the ectodomain (20-kDa). The proteins were produced as described in Libeu et al., (2011) J. Alzheimer's Dis., 25(3): 547-566. […] FIG. 11 compares the normalized response for the all three proteins. Comparison of the normalized curves between the proteins was done with PRISM (GraphPad Inc).

Cc1nnc(C(=O)O[C@H]2C[C@H]3CC[C@@H](C2)N3C)o1 [Compound 14]
binding to the ectodomain of APP (0-50 μM compound, 1% DMSO, 20 mM sodium phosphate, 125 mM sodium chloride pH 7.4, CM5 chip): has affinity for APP and can directly bind to the ectodomain of APP
normalized response curves compared between the eAPP fragments (MBP-eAPP230-624 vs eAPP230-624 vs TRX-eAPP575-624, comparison with PRISM): not significantly different
